PMC11359809, “Probing the molecular basis for signal transduction through the Zinc-Activated Channel (ZAC)” (Biochemical pharmacology, 2021)
Numbering of substitutions follows the chain as printed.

Tests used:
[1] = system: ZAC/hα1-Gly; experiment: TEVC in oocytes expressing ZAC/hα1-Gly chimera; type: cell-based, human
Procedure: (§1) The recordings were performed at room temperature.
(§2) Analysis of the data from the TEVC recordings were performed using Clampfit software version 10.5 (Molecular Devices, Crawley, UK) and GraphPad Prism version 7.0c (GraphPad Software, La Jolla, CA). Unless otherwise stated, the inward currents induced by agonists in oocytes were normalized to the maximal response elicited by a specific agonist (agonist Imax) on each oocyte. Concentration-response and concentration-inhibition curves were fitted in GraphPad Prism by nonlinear regression using the equation for sigmoidal dose-response with variable slope. Each data point represents the mean ± S.E.M. value of recordings performed on at least five oocytes in total from at least two different batches. For the data where statistical analysis was performed, a one-way ANOVA was used. The null hypothesis was rejected at P < 0.05, and the differences between the means were analyzed by Tukey’s multiple comparisons test.
Initially, we constructed four chimeric subunits fusing the ZAC ECD or TMD-ICD with the complementary domains from either the m5-HT3A or the hα1 GlyR subunit: ZAC/m5-HT3A, m5-HT3A/ZAC, ZAC/hα1-Gly and hα1-Gly/ZAC (Fig. 1A). […] (Fig. 1A).

[2] = target: T1, ZAC^H210A (Homo sapiens, UniProt Q401N2, A152T/H144A); experiment: TEVC in oocytes, His120 Ala mutant; type: cell-based; details: 10 mM Zn^2+
T1 construct: expressed in transfected cells; host or cells: Xenopus oocytes injected with cRNA (pUNIV vector)
T1 sequence (Q401N2 26-412 H144A/A152T): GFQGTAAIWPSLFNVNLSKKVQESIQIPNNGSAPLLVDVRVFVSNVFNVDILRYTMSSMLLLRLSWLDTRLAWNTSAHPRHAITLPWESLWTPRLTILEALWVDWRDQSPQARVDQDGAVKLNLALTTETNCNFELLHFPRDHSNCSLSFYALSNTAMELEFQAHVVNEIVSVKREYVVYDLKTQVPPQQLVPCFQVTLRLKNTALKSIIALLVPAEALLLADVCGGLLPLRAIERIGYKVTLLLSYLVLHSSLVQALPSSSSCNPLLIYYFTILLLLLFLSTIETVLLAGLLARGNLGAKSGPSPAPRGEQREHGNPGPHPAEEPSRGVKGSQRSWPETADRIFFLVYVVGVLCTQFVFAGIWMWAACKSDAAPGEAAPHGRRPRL
Procedure: as §1
as §2, with “For the data where statistical analysis was performed, a one-way ANOVA was used.” left out
(§3) The putative involvement of candidate residues in Clusters 1, 2, 3 and 4 in Zn^2+ binding to ZAC was investigated in by an elaborate alanine mutagenesis scanning. […] The determined IpH 4.0 value was used in part as a control and in part to enable the distinction of ZAC mutants non-responsive to Zn^2+ due to elimination of their ability to bind the metal ion from those where the mutation had eliminated cell surface expression and/or disrupted overall functionality of the receptor complex. […]

[3] = target: T2, ZAC^H139A (Homo sapiens, UniProt Q401N2, A152T/H163A); experiment: TEVC in oocytes, ZAC H139A mutant; type: cell-based
T2 construct: expressed in transfected cells; host or cells: Xenopus oocytes injected with cRNA (pUNIV vector)
T2 sequence (Q401N2 26-412 A152T/H163A): as the sequence (Q401N2 26-412 H144A/A152T) above, with A119H, H138A counted along it
Procedure: as §1
as §2, with “For the data where statistical analysis was performed, a one-way ANOVA was used.” left out
as §3

[4] = target: T3, ZAC^E24A/E89A/D105A/D108A/E130A (Homo sapiens, UniProt Q401N2, A152T/D129A/D132A/E113A/E154A/E48A); experiment: TEVC in oocytes, Cluster 3 quintuple mutant; type: cell-based; details: H^+ pH 4.0; Zn^2+ 10 mM; data not shown
T3 construct: expressed in transfected cells; host or cells: Xenopus oocytes injected with cRNA (pUNIV vector)
T3 sequence (Q401N2 26-412 E48A/E113A/D129A/D132A/A152T/E154A): as the sequence (Q401N2 26-412 H144A/A152T) above, with E23A, E88A, D104A, D107A, A119H, E129A counted along it
Procedure: as §1
as §2, with “For the data where statistical analysis was performed, a one-way ANOVA was used.” left out
as §3

[5] = target: T4, ZAC^D105A/D108A (Homo sapiens, UniProt Q401N2, A152T/D129A/D132A); experiment: TEVC in oocytes, ZAC D105A/D108A mutant; type: cell-based; details: 10 mM Zn^2+; data not shown
T4 construct: expressed in transfected cells; host or cells: Xenopus oocytes injected with cRNA (pUNIV vector)
T4 sequence (Q401N2 26-412 D129A/D132A/A152T): as the sequence (Q401N2 26-412 H144A/A152T) above, with D104A, D107A, A119H counted along it
Procedure: as §1
as §2, with “For the data where statistical analysis was performed, a one-way ANOVA was used.” left out
as §3

[6] = target: T5, ZAC^E160A/E162A/C195A (Homo sapiens, UniProt Q401N2, A152T/C219A/E184A/E186A); experiment: TEVC in oocytes, Cluster 4 triple mutant; type: cell-based; details: agonist; n = 6
T5 construct: expressed in transfected cells; host or cells: Xenopus oocytes injected with cRNA (pUNIV vector)
T5 sequence (Q401N2 26-412 A152T/E184A/E186A/C219A): as the sequence (Q401N2 26-412 H144A/A152T) above, with A119H, E159A, E161A, C194A counted along it
Procedure: as §1
as §2, with “For the data where statistical analysis was performed, a one-way ANOVA was used.” left out
as §3

[7] = target: T6, ZAC^L9′V (Homo sapiens, UniProt Q401N2, A152T/L270V); experiment: TEVC in oocytes, ZAC L9′V mutant; type: cell-based; details: agonist; n = 8
T6 construct: expressed in transfected cells; host or cells: Xenopus oocytes (cRNA injection, pUNIV vector)
T6 sequence (Q401N2 26-412 A152T/L270V): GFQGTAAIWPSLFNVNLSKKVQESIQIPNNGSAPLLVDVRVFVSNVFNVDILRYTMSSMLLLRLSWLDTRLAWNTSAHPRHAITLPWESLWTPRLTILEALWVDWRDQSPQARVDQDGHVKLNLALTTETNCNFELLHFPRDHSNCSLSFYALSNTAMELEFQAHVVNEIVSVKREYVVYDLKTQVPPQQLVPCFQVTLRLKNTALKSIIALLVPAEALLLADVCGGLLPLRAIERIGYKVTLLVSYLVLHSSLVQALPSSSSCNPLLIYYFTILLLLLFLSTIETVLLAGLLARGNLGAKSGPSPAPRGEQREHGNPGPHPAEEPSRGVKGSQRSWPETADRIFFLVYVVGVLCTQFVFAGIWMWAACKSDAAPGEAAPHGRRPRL
Procedure: as §1, §2

[8] = target: T7, ZAC^L9′T (Homo sapiens, UniProt Q401N2, A152T/L270T); experiment: TEVC in oocytes, ZAC L9′T mutant; type: cell-based; details: agonist; n = 6
T7 construct: expressed in transfected cells; host or cells: Xenopus oocytes (cRNA injection, pUNIV vector)
T7 sequence (Q401N2 26-412 A152T/L270T): T6 sequence (Q401N2 26-412 A152T/L270V) with V245T
Procedure: as §1, §2

[9] = system: ZAC^L9′V, ZAC^L9′I and ZAC^L9′T; experiment: TEVC in oocytes, L9′V, L9′I and L9′T mutants (collective statement); type: cell-based, human; details: compared to WT ZAC; range over the three mutants
Procedure: as §1, §2

[10] = target: T8, ZAC^H79A/H120F (Homo sapiens, UniProt Q401N2, A152T/H103A/H144F); experiment: TEVC in oocytes, ZAC H79A/H120F mutant; type: cell-based; details: parallel recordings, same oocyte batches
T8 construct: expressed in transfected cells; host or cells: Xenopus oocytes (cRNA injection, pUNIV vector)
T8 sequence (Q401N2 26-412 H103A/H144F/A152T): as the sequence (Q401N2 26-412 H144A/A152T) above, with H78A, A119F counted along it
Procedure: as §1
as §2, with “For the data where statistical analysis was performed, a one-way ANOVA was used.” left out
as §3

[11] = target: T9, ZAC^H82A/H120F (Homo sapiens, UniProt Q401N2, A152T/H106A/H144F); experiment: TEVC in oocytes, ZAC H82A/H120F mutant; type: cell-based; details: parallel recordings, same oocyte batches
T9 construct: expressed in transfected cells; host or cells: Xenopus oocytes (cRNA injection, pUNIV vector)
T9 sequence (Q401N2 26-412 H106A/H144F/A152T): as the sequence (Q401N2 26-412 H144A/A152T) above, with H81A, A119F counted along it
Procedure: as §1
as §2, with “For the data where statistical analysis was performed, a one-way ANOVA was used.” left out
as §3

[12] = target: T10, ZAC^H79A/H82A/H120F (Homo sapiens, UniProt Q401N2, A152T/H103A/H106A/H144F); experiment: TEVC in oocytes, ZAC H79A/H82A/H120F mutant; type: cell-based; details: parallel recordings, same oocyte batches
T10 construct: expressed in transfected cells; host or cells: Xenopus oocytes (cRNA injection, pUNIV vector)
T10 sequence (Q401N2 26-412 H103A/H106A/H144F/A152T): as the sequence (Q401N2 26-412 H144A/A152T) above, with H78A, H81A, A119F counted along it
Procedure: as §1
as §2, with “For the data where statistical analysis was performed, a one-way ANOVA was used.” left out
as §3

[13] = target: T11, ZAC^D108A (Homo sapiens, UniProt Q401N2, A152T/D132A); experiment: TEVC in oocytes, ZAC D108A mutant; type: cell-based
T11 construct: expressed in transfected cells; host or cells: Xenopus oocytes (cRNA injection, pUNIV vector)
T11 sequence (Q401N2 26-412 D132A/A152T): as the sequence (Q401N2 26-412 H144A/A152T) above, with D107A, A119H counted along it
Procedure: as §1
as §2, with “For the data where statistical analysis was performed, a one-way ANOVA was used.” left out
as §3

[14] = target: T12, ZAC^E130A (Homo sapiens, UniProt Q401N2, A152T/E154A); experiment: TEVC in oocytes, ZAC E130A mutant; type: cell-based
T12 construct: expressed in transfected cells; host or cells: Xenopus oocytes (cRNA injection, pUNIV vector)
T12 sequence (Q401N2 26-412 A152T/E154A): as the sequence (Q401N2 26-412 H144A/A152T) above, with A119H, E129A counted along it
Procedure: as §1
as §2, with “For the data where statistical analysis was performed, a one-way ANOVA was used.” left out
as §3

[15] = sustained (4 min) application of 30 μM Zn^2+

In the case of `[Cl-].[Cl-].[Zn+2]` [Zn^2+, ZnCl2], the “Imax (current amplitude evoked by saturating agonist)” value ([1]; 30 μM Zn^2+, n = 11) is reported as 0.24 ± 0.03 μA, the “nH ± S.E.M. (Hill slope)” value ([1]; agonist, n = 10) is reported as 1.6 ± 0.4 and the “pEC50 ± S.E.M.” value ([1]; agonist, n = 10) is reported as 5.36 ± 0.09. The “left-shift of concentration-response relationship (higher agonist potency)” value ([1]; compared to WT ZAC) was about 100 fold, the “Iresidual, 4 min” value [1, 15] was 63 ± 6 % of Ipeak and the Δtpeak-to-plateau [1, 15] was 56 ± 3.8 s. The Δtstart-to-peak [1, 15] was 10 ± 1.9 s, the “I10 mM Zn2+” value [2] was 5–30 nA and the “functional properties as agonist compared to WT ZAC” value [3] was “not altered significantly”. The agonist responsiveness [4] was “non-responsive”, the agonist responsiveness [5] was “non-responsive” and the EC50 [6] was 180 µM. For the same molecule, the “pEC50 ± S.E.M.” value [6] was 3.75 ± 0.05, the EC50 [7] was 13 µM and the “nH ± S.E.M. (Hill slope)” value [7] was 0.7 ± 0.3. The “pEC50 ± S.E.M.” value [7] was 4.88 ± 0.22, the EC50 [8] was 66 µM and the “nH ± S.E.M. (Hill slope)” value [8] was 0.7 ± 0.4. The “pEC50 ± S.E.M.” value [8] was 4.18 ± 0.34, the “left-shift of Zn^2+ concentration-response relationship” value [9] was 8–30 fold and the “ability to elicit ZAC signalling compared to WT ZAC” value (“ability … compared to WT ZAC” below) [10] was “did not appear to impair”. For the same molecule, the “ability … compared to WT ZAC” value [11] was “did not appear to impair”, the “ability … compared to WT ZAC” value [12] was “did not appear to impair” and the “concentration-response relationship compared to WT ZAC” value [13] was “did not differ significantly”. The “concentration-response relationship compared to WT ZAC” value [14] was “did not differ significantly”.
